Data reported in PMC5218480 (PLoS ONE, 2017).

Test system: MV-4-11 cells
Experiment: Gene expression microarray analysis (Affymetrix PrimeView) and GSEA
Format: cell-based, human
Set-up: RFU PODN (11730768_x_at) / Fold change /veh PODN (11730768_x_at) / RFU LINC00158 (11744669_a_at) / Fold change /veh LINC00158 (11744669_a_at) / RFU DUSP10 (11751237_a_at) / Fold change /veh DUSP10 (11751237_a_at) / RFU ID3 (11757404_x_at) / Fold change /veh ID3 (11757404_x_at) / RFU PLEKHG5 (11737974_s_at) / Fold change /veh PLEKHG5 (11737974_s_at) / RFU LRRC4B (11730491_at) / Fold change /veh LRRC4B (11730491_at) / RFU GIMAP4 (11747438_a_at) / Fold change /veh GIMAP4 (11747438_a_at) / RFU KRT8 (11758183_x_at) / Fold change /veh KRT8 (11758183_x_at) / RFU CNN1 (11734310_a_at) / Fold change /veh CNN1 (11734310_a_at) / RFU VPS37D (11726825_at) / Fold change /veh VPS37D (11726825_at) / RFU C10orf10 (11716522_x_at) / Fold change /veh C10orf10 (11716522_x_at) / RFU KIR2DL2 /// KIR2DL4 /// KIR2DL5A /// KIR2DL5B /// KIR2DS1 /// KIR2DS2 /// KIR2DS3 /// KIR2DS4 /// KIR3DL3 /// KIR3DL3 /// KIR3DS1 (11738374_at) / Fold change /veh KIR2DL2 /// KIR2DL4 /// KIR2DL5A /// KIR2DL5B /// KIR2DS1 /// KIR2DS2 /// KIR2DS3 /// KIR2DS4 /// KIR3DL3 /// KIR3DL3 /// KIR3DS1 (11738374_at) / RFU C1QL1 (11718748_at) / Fold change /veh C1QL1 (11718748_at) / RFU TMPRSS4 (11747572_a_at) / Fold change /veh TMPRSS4 (11747572_a_at) / RFU HAMP (11756126_x_at) / Fold change /veh HAMP (11756126_x_at) / RFU RNFT2 (11725882_a_at) / Fold change /veh RNFT2 (11725882_a_at) / RFU NR4A2 (11747474_a_at) / Fold change /veh NR4A2 (11747474_a_at) / RFU ABCC12 (11746883_a_at) / Fold change /veh ABCC12 (11746883_a_at) / RFU TMEM136 (11760407_x_at) / Fold change /veh TMEM136 (11760407_x_at) / RFU CLDN22 /// WWC2 (11732394_at) / Fold change /veh CLDN22 /// WWC2 (11732394_at) / RFU HLA-DPB1 (11760878_x_at) / Fold change /veh HLA-DPB1 (11760878_x_at) / RFU SPINT1 (11716480_a_at) / Fold change /veh SPINT1 (11716480_a_at) / RFU GAP43 (11754022_s_at) / Fold change /veh GAP43 (11754022_s_at) / RFU A4GNT (11735810_at) / Fold change /veh A4GNT (11735810_at) / RFU PRB3 (11715151_x_at) / Fold change /veh PRB3 (11715151_x_at) / RFU TUBB4B (11761932_at) / Fold change /veh TUBB4B (11761932_at) / RFU CAPN14 (11732068_a_at) / Fold change /veh CAPN14 (11732068_a_at) / RFU TMCC2 (11721928_a_at) / Fold change /veh TMCC2 (11721928_a_at) / RFU IRGQ (11745062_a_at) / Fold change /veh IRGQ (11745062_a_at) / RFU FAM174B (11720279_a_at) / Fold change /veh FAM174B (11720279_a_at) / RFU TMPRSS4 (11748680_a_at) / Fold change /veh TMPRSS4 (11748680_a_at) / RFU FAM212B (11763350_a_at) / Fold change /veh FAM212B (11763350_a_at) / RFU PLEKHG5 (11743358_a_at) / Fold change /veh PLEKHG5 (11743358_a_at) / RFU ZSCAN30 (11745921_a_at) / Fold change /veh ZSCAN30 (11745921_a_at) / RFU CMKLR1 (11741424_a_at) / Fold change /veh CMKLR1 (11741424_a_at) / RFU LOC101060620 /// MAPK8IP1 (11723275_at) / Fold change /veh LOC101060620 /// MAPK8IP1 (11723275_at) / RFU SPTSSB (11747773_x_at) / Fold change /veh SPTSSB (11747773_x_at) / RFU PRSS12 (11739890_at) / Fold change /veh PRSS12 (11739890_at) / RFU BIN1 (11741810_x_at) / Fold change /veh BIN1 (11741810_x_at) / RFU WNT11 (11732464_a_at) / Fold change /veh WNT11 (11732464_a_at) / RFU C10orf10 (11716521_a_at) / Fold change /veh C10orf10 (11716521_a_at) / RFU C5orf56 (11738089_at) / Fold change /veh C5orf56 (11738089_at) / RFU CYB561 (11721691_x_at) / Fold change /veh CYB561 (11721691_x_at) / RFU ANKRD19P (11752326_a_at) / Fold change /veh ANKRD19P (11752326_a_at) / RFU OR2T12 /// OR2T33 /// OR2T8 (11738714_s_at) / Fold change /veh OR2T12 /// OR2T33 /// OR2T8 (11738714_s_at) / RFU VCAN (11748164_a_at) / Fold change /veh VCAN (11748164_a_at) / RFU JSRP1 (11732532_at) / Fold change /veh JSRP1 (11732532_at) / RFU KRTAP10-11 (11738290_x_at) / Fold change /veh KRTAP10-11 (11738290_x_at) / RFU MYO3A (11730013_a_at) / Fold change /veh MYO3A (11730013_a_at) / RFU EBF3 (11725865_a_at) / Fold change /veh EBF3 (11725865_a_at) / RFU CAMK2N1 (11719241_x_at) / Fold change /veh CAMK2N1 (11719241_x_at) / RFU C5orf56 (11738088_a_at) / Fold change /veh C5orf56 (11738088_a_at) / RFU OLFML3 (11715873_a_at) / Fold change /veh OLFML3 (11715873_a_at) / RFU LOC100653217 /// NTM (11731650_a_at) / Fold change /veh LOC100653217 /// NTM (11731650_a_at) / RFU MAPK11 (11762145_a_at) / Fold change /veh MAPK11 (11762145_a_at) / RFU FIZ1 (11724087_x_at) / Fold change /veh FIZ1 (11724087_x_at) / RFU OASL (11726364_x_at) / Fold change /veh OASL (11726364_x_at) / RFU SOX15 (11748057_x_at) / Fold change /veh SOX15 (11748057_x_at) / RFU CD79A (11719716_a_at) / Fold change /veh CD79A (11719716_a_at) / RFU HIST1H1D (11736915_at) / Fold change /veh HIST1H1D (11736915_at) / RFU CASKIN2 (11723855_a_at) / Fold change /veh CASKIN2 (11723855_a_at) / RFU LOC730098 (11760151_x_at) / Fold change /veh LOC730098 (11760151_x_at) / RFU OR4N2 (11742367_at) / Fold change /veh OR4N2 (11742367_at) / RFU PRRT2 (11749266_a_at) / Fold change /veh PRRT2 (11749266_a_at) / RFU SNX32 (11753110_a_at) / Fold change /veh SNX32 (11753110_a_at) / RFU CDHR5 (11726645_a_at) / Fold change /veh CDHR5 (11726645_a_at) / RFU RCAN1 (11760418_a_at) / Fold change /veh RCAN1 (11760418_a_at) / RFU FAM167A (11723789_a_at) / Fold change /veh FAM167A (11723789_a_at) / RFU FAM26E (11764081_at) / Fold change /veh FAM26E (11764081_at) / RFU ISYNA1 (11749810_s_at) / Fold change /veh ISYNA1 (11749810_s_at) / RFU ACY1 (11761880_at) / Fold change /veh ACY1 (11761880_at) / RFU 11764098_at / Fold change /veh 11764098_at / RFU SAMD14 (11745864_x_at) / Fold change /veh SAMD14 (11745864_x_at) / RFU NPB (11741838_a_at) / Fold change /veh NPB (11741838_a_at) / RFU TMPRSS6 (11731388_a_at) / Fold change /veh TMPRSS6 (11731388_a_at) / RFU KRTAP10-2 (11738614_at) / Fold change /veh KRTAP10-2 (11738614_at) / RFU ARHGAP8 /// PRR5-ARHGAP8 (11727945_x_at) / Fold change /veh ARHGAP8 /// PRR5-ARHGAP8 (11727945_x_at) / RFU KRTAP5-7 /// NADSYN1 (11734609_at) / Fold change /veh KRTAP5-7 /// NADSYN1 (11734609_at) / RFU RASL12 (11751679_a_at) / Fold change /veh RASL12 (11751679_a_at) / RFU CDKN2B (11736163_a_at) / Fold change /veh CDKN2B (11736163_a_at) / RFU PRF1 (11729649_at) / Fold change /veh PRF1 (11729649_at) / RFU, ZNF638 /// ZNF638-IT1 / Fold change vs veh, ZNF638 /// ZNF638-IT1 / RFU, PANK3 / Fold change vs veh, PANK3 / RFU, SH3YL1 / Fold change vs veh, SH3YL1 / RFU, ZEB2 / Fold change vs veh, ZEB2 / RFU, NRIP1 / Fold change vs veh, NRIP1 / RFU, PTTG1IP / Fold change vs veh, PTTG1IP / RFU, CAPN2 / Fold change vs veh, CAPN2 / RFU, MED14 / Fold change vs veh, MED14 / RFU, SNORA58 / Fold change vs veh, SNORA58 / RFU, C1orf63 / Fold change vs veh, C1orf63 / RFU, LRRFIP1 / Fold change vs veh, LRRFIP1 / RFU, NDUFAF7 / Fold change vs veh, NDUFAF7 / RFU, SLC12A2 / Fold change vs veh, SLC12A2 / RFU, IBTK / Fold change vs veh, IBTK / RFU, ESF1 / Fold change vs veh, ESF1 / Fold change vs veh, TMEM50B / RFU, TAOK1 / Fold change vs veh, TAOK1 / RFU, ACBD3 / Fold change vs veh, ACBD3 / RFU, TMA16 / Fold change vs veh, TMA16 / RFU, RWDD3 / Fold change vs veh, RWDD3 / RFU, BCAT1 / Fold change vs veh, BCAT1 / RFU, EDEM3 / Fold change vs veh, EDEM3 / RFU, TMEM33 / Fold change vs veh, TMEM33 / RFU, WDR75 / Fold change vs veh, WDR75 / RFU, AHCTF1 / Fold change vs veh, AHCTF1 / RFU, TFRC / Fold change vs veh, TFRC / RFU, ZDHHC17 / Fold change vs veh, ZDHHC17 / RFU, NOM1 / Fold change vs veh, NOM1 / RFU, ARL8B / Fold change vs veh, ARL8B / RFU, ZBTB11 / Fold change vs veh, ZBTB11 / RFU, TAMM41 / Fold change vs veh, TAMM41 / RFU, KIAA1704 /// LOC100996395 / Fold change vs veh, KIAA1704 /// LOC100996395 / RFU, ING1 / Fold change vs veh, ING1 / RFU, TRMT61B / Fold change vs veh, TRMT61B / RFU, FUBP3 / Fold change vs veh, FUBP3 / RFU, TP53 / Fold change vs veh, TP53 / RFU, TNKS2 / Fold change vs veh, TNKS2 / RFU, ZFP14 / Fold change vs veh, ZFP14 / RFU, ACTR2 / Fold change vs veh, ACTR2 / RFU, PPP3R1 / Fold change vs veh, PPP3R1 / RFU, PIK3R1 / Fold change vs veh, PIK3R1 / RFU, HNRNPA1 / Fold change vs veh, HNRNPA1 / RFU, RNF170 / Fold change vs veh, RNF170 / RFU, ZNF28 / Fold change vs veh, ZNF28 / RFU, RNGTT / Fold change vs veh, RNGTT / RFU, OGT / Fold change vs veh, OGT / RFU, BRD1 / Fold change vs veh, BRD1 / RFU, MARS / Fold change vs veh, MARS / RFU, ZNF655 / Fold change vs veh, ZNF655 / RFU, FAHD1 / Fold change vs veh, FAHD1 / RFU, BDP1 / Fold change vs veh, BDP1 / RFU, LRRCC1 / Fold change vs veh, LRRCC1 / RFU, ARID1A / Fold change vs veh, ARID1A / RFU, ZNF146 / Fold change vs veh, ZNF146 / RFU, ZNF330 / Fold change vs veh, ZNF330 / RFU, GPN3 / Fold change vs veh, GPN3 / RFU, C9orf123 / Fold change vs veh, C9orf123 / RFU, N4BP2L2 / Fold change vs veh, N4BP2L2 / RFU, ARFIP1 / Fold change vs veh, ARFIP1 / RFU, FAM179B / Fold change vs veh, FAM179B / RFU, BCL10 / Fold change vs veh, BCL10 / RFU, UHRF1BP1L / Fold change vs veh, UHRF1BP1L / RFU, BET1 / Fold change vs veh, BET1 / RFU, CNOT2 / Fold change vs veh, CNOT2 / RFU, ZNF268 / Fold change vs veh, ZNF268 / Fold change vs veh, ZNF507 / RFU, DGCR2 / Fold change vs veh, DGCR2 / RFU, WDSUB1 / Fold change vs veh, WDSUB1 / Fold change vs veh, HSP90B1 /// MIR3652 / RFU, ADSS / Fold change vs veh, ADSS / RFU, GK / Fold change vs veh, GK / RFU, ZNF148 / Fold change vs veh, ZNF148 / RFU, TAF9 / Fold change vs veh, TAF9 / RFU, SLC1A5 / Fold change vs veh, SLC1A5 / RFU, SLMO2 / Fold change vs veh, SLMO2 / RFU, ABCC4 / Fold change vs veh, ABCC4 / RFU, LOC101060439 /// RAP1B / Fold change vs veh, LOC101060439 /// RAP1B / RFU, RFX7 / Fold change vs veh, RFX7 / RFU, GTPBP10 / Fold change vs veh, GTPBP10 / RFU, CNEP1R1 / Fold change vs veh, CNEP1R1 / RFU, BIVM-ERCC5 /// ERCC5 / Fold change vs veh, BIVM-ERCC5 /// ERCC5 / RFU, ILF3 / Fold change vs veh, ILF3 / RFU 11762660_at / Fold change /veh 11762660_at / RFU VCAN (11757783_s_at) / Fold change /veh VCAN (11757783_s_at) / RFU DDX43 (11728927_at) / Fold change /veh DDX43 (11728927_at) / RFU KRT8 (11758188_x_at) / Fold change /veh KRT8 (11758188_x_at) / RFU NKD1 (11759106_at) / Fold change /veh NKD1 (11759106_at) / RFU SRD5A1 (11742802_a_at) / Fold change /veh SRD5A1 (11742802_a_at) / RFU TPSAB1 /// TPSB2 (11721975_s_at) / Fold change /veh TPSAB1 /// TPSB2 (11721975_s_at) / RFU GSTM3 (11746129_a_at) / Fold change /veh GSTM3 (11746129_a_at) / RFU IL23R (11737362_x_at) / Fold change /veh IL23R (11737362_x_at) / RFU TMEM51 (11727254_a_at) / Fold change /veh TMEM51 (11727254_a_at) / RFU PIWIL2 (11732686_x_at) / Fold change /veh PIWIL2 (11732686_x_at) / RFU ORM1 (11744905_x_at) / Fold change /veh ORM1 (11744905_x_at) / RFU CCDC152 (11743942_at) / Fold change /veh CCDC152 (11743942_at) / RFU ECM1 (11717891_a_at) / Fold change /veh ECM1 (11717891_a_at) / RFU IL23R (11748794_a_at) / Fold change /veh IL23R (11748794_a_at) / RFU TNFAIP8L3 (11732012_x_at) / Fold change /veh TNFAIP8L3 (11732012_x_at) / RFU MBOAT4 (11741988_at) / Fold change /veh MBOAT4 (11741988_at) / RFU 11764193_at / Fold change /veh 11764193_at / RFU TMEM53 (11763286_at) / Fold change /veh TMEM53 (11763286_at) / RFU MAGEB2 (11727129_at) / Fold change /veh MAGEB2 (11727129_at) / RFU TMEM200A (11744735_a_at) / Fold change /veh TMEM200A (11744735_a_at) / RFU CCDC152 (11751479_a_at) / Fold change /veh CCDC152 (11751479_a_at) / RFU FAM211A (11726209_a_at) / Fold change /veh FAM211A (11726209_a_at) / RFU RGS16 (11746705_a_at) / Fold change /veh RGS16 (11746705_a_at) / RFU VCAN (11755009_s_at) / Fold change /veh VCAN (11755009_s_at) / RFU RHOB (11743442_s_at) / Fold change /veh RHOB (11743442_s_at) / RFU RGS16 (11720943_a_at) / Fold change /veh RGS16 (11720943_a_at) / RFU RGS16 (11720944_at) / Fold change /veh RGS16 (11720944_at) / RFU, VPS4B / Fold change vs veh, VPS4B / RFU, CREB1 / Fold change vs veh, CREB1 / RFU, DNAJC13 / Fold change vs veh, DNAJC13 / RFU, GNAQ / Fold change vs veh, GNAQ / RFU, CDK5R1 / Fold change vs veh, CDK5R1 / RFU, ZRANB3 / Fold change vs veh, ZRANB3 / RFU, CUL4A / Fold change vs veh, CUL4A / RFU, CCNY / Fold change vs veh, CCNY / RFU, UFL1 / Fold change vs veh, UFL1 / RFU, COG3 / Fold change vs veh, COG3 / RFU, DIAPH2 / Fold change vs veh, DIAPH2 / RFU, SKA2 / Fold change vs veh, SKA2 / RFU, AFF3 / Fold change vs veh, AFF3 / RFU, LMF1 / Fold change vs veh, LMF1 / RFU, IPO11 / Fold change vs veh, IPO11 / RFU, DFFB / Fold change vs veh, DFFB / RFU, FOXP1 / Fold change vs veh, FOXP1 / RFU, CARD8 / Fold change vs veh, CARD8 / RFU, STRN3 / Fold change vs veh, STRN3 / RFU, ADK / Fold change vs veh, ADK / RFU, RASSF2 / Fold change vs veh, RASSF2 / RFU, WIPF1 / Fold change vs veh, WIPF1 / RFU, LARP1B / Fold change vs veh, LARP1B / RFU, RASA1 / Fold change vs veh, RASA1 / RFU, RB1 / Fold change vs veh, RB1 / RFU, PPFIA1 / Fold change vs veh, PPFIA1 / RFU, MAT2A / Fold change vs veh, MAT2A / RFU, CCT5 / Fold change vs veh, CCT5 / RFU, WDR92 / Fold change vs veh, WDR92 / RFU, CUX1 / Fold change vs veh, CUX1 / RFU, TTC7A / Fold change vs veh, TTC7A / RFU, TMEM135 / Fold change vs veh, TMEM135 / RFU, DEPTOR / Fold change vs veh, DEPTOR / RFU, CPM / Fold change vs veh, CPM / RFU, DNAJB6 / Fold change vs veh, DNAJB6 / RFU, CACNA2D3 / Fold change vs veh, CACNA2D3 / RFU, DTX4 / Fold change vs veh, DTX4 / RFU, TFCP2 / Fold change vs veh, TFCP2 / RFU, GMCL1 /// GMCL1P1 / Fold change vs veh, GMCL1 /// GMCL1P1 / RFU, AEBP2 / Fold change vs veh, AEBP2 / RFU, SNHG1 /// SNORD22 /// SNORD25 /// SNORD26 /// SNORD27 /// SNORD28 /// SNORD29 /// SNORD31 / Fold change vs veh, SNHG1 /// SNORD22 /// SNORD25 /// SNORD26 /// SNORD27 /// SNORD28 /// SNORD29 /// SNORD31 / Fold change (Aza/veh), C12orf56 (ProbeSet 11735607_a_at) / Fold change (ACY-1035/veh), C12orf56 (ProbeSet 11735607_a_at) / Fold change (Aza/veh), FGFR1OP (ProbeSet 11751329_s_at) / Fold change (ACY-1035/veh), FGFR1OP (ProbeSet 11751329_s_at) / Fold change (Aza/veh), VPS36 (ProbeSet 11739960_a_at) / Fold change (ACY-1035/veh), VPS36 (ProbeSet 11739960_a_at) / RFU SYPL1 (11715823_x_at) / Fold change /veh SYPL1 (11715823_x_at) / RFU IGFBP7 (11715501_s_at) / Fold change /veh IGFBP7 (11715501_s_at) / RFU REEP3 (11722064_at) / Fold change /veh REEP3 (11722064_at) / RFU IGLL1 (11728026_x_at) / Fold change /veh IGLL1 (11728026_x_at): dose or concentration left out as unconfirmed
Details: MV-4-11 cells, 48 hours

## Nc1ncn([C@@H]2O[C@H](CO)[C@@H](O)[C@H]2O)c(=O)n1 [azacitidine]
  Fold change /veh KIR2DL2 /// KIR2DL4 /// KIR2DL5A /// KIR2DL5B /// KIR2DS1 /// KIR2DS2 /// KIR2DS3 /// KIR2DS4 /// KIR3DL3 /// KIR3DL3 /// KIR3DS1 (11738374_at): 0.92
